Test system: 485176-168-R4-J1-PDC complex spheroid growth
Experiment: Anticancer human tumor 485176-168-R4-J1-PDC patient-derived pancreatic adenocarcinoma cell line growth inhibition [RAS]
Conditions: for IC50: curve of first compound; for viability, T/C: stronger effect = lower value; active = viability on the fitted dose curve at most 10% of control; inactive = the rest
From the text: RAS pathway inhibitors in Combinations in Complex Spheroids
A high-throughput screen of multi-cell type tumor spheroids was designed to identify active combinations of RAS pathway inhibitors and targeted small molecules. Complex spheroids include a stromal component modeled by human endothelial cells (HUVEC) and fibroblasts modeled by human mesenchymal stem cells (MSCs). The concentration ranges selected for each drug and investigational agent were based upon clinically achievable concentrations if the clinical Cmax of the agent was known.
Compounds. The drugs and investigational agents: abemaciclib (NSC768073), cobimetinib (NSC768068), divarasib (GDC6063, NSC841802), docetaxel (NSC628503), GDC-1971 (RLY-1971, NSC841576), gemcitabine (NSC613327), inavolisib (NSC800729), ipatasertib (NSC767898), KB-0742 (NSC834161), MRTX-1133 (NSC836407), osimertinib (NSC779217), RMC-4630 (NSC839698), RMC-6236 (NSC851965), RMC-6291 (NSC852671), Ro-3306 (NSC812927), sapanisertib (NSC764658), SN-38 (NSC673596), staurosporine (NSC755774), SY5609 (NSC837396), and tovorafenib (DAY101, NSC766906), were obtained from the National Cancer Institute (NCI) Developmental Therapeutics Program Chemical Repository. The FDA-approved anticancer drug set is available from the NCI Developmental Therapeutics Program. […] The stock solutions were prepared in dimethyl sulfoxide (DMSO, Sigma-Aldrich, St. Louis, MO, cat. D2650) at 800-fold the tested concentration and stored at -70 degrees C prior to their use. All drugs and investigational agents were tested over a range starting from a high concentration at or near the clinical Cmax and decreasing in half-log increments. If the clinical Cmax for an agent had not been determined, the highest concentration tested was 10 microM.
Cell Culture. All cells were maintained in an incubator at 37 degrees C and 5% CO2 with 95% humidity. The PDC lines were cultured according to standard operating procedures established by the NCI PDMR. All PDCs were thawed and cultured in Matrigel-coated flasks prepared with a working solution of 1X Ham's F-12 nutrient mix, without supplementation (Invitrogen, Waltham, MA, cat. 11765054), 100 U/mL penicillin-streptomycin (Invitrogen, cat. 15140122), and 2.5% Matrigel (Corning Inc., Corning, NY, cat. 354248) for the first three passages. The 362531-283-R-J2-PDC and 782815-120-R-J1-PDC lines were cultured in 6C/Colon 1B media, which includes advanced DMEM/F-12 (Thermo Fisher Scientific, cat. 12634028), 10 mM HEPES (Thermo Fisher Scientific, cat. 15630080), 1X GlutaMAX supplement (Thermo Fisher Scientific, cat. 35050061), 0.1 mg/mL primocin (InvivoGen, San Diego, CA, cat. ant-pm-2), 10% defined fetal bovine serum, heat inactivated (HyClone Laboratories Inc., Logan, UT, cat. SH30070.03HI), 50% L-WRN conditioned media (ATCC, cat. CRL-3276), 1.25 mM N-Acetyl-L-cysteine (Sigma-Aldrich, cat. A9165), 10 mM nicotinamide (Sigma-Aldrich, cat. N0636), 1X B-27 supplement (Thermo Fisher Scientific, cat. 17504044), 1X N-2 supplement (Thermo Fisher Scientific, cat. 17502048), 50 ng/mL human EGF (Thermo Fisher Scientific, cat. PHG0311), and 10 microM Y-27632 dihydrochloride (Tocris Bioscience, cat. 1254). The K12877-001-R-J1-PDC line was cultured in 6I media, which includes all 6C/Colon 1B media plus 10 ng/mL human FGF-10 (PeproTech, cat. 100-26), 1 ng/mL human FGF-2 (PeproTech, cat. 100-18B), 1 µM prostaglandin E2 (Tocris Bioscience, cat. 2296), […] hydrocortisone (Sigma-Aldrich, cat. H4001), and […] bovine insulin (Sigma-Aldrich, cat. I6634). The K86415-001-R-J1-PDC line was cultured in 6D media, which includes all 6C/Colon 1B media components minus the L-WRN conditioned media. The 485176-168-R4-J1-PDC was cultured in PANC media, which includes all 6C/Colon 1B media plus 100 ng/mL human FGF-10 (PeproTech, cat. 100-26), 500 nM SB-431542 (Selleckchem, cat. S1067), and 10 nM gastrin (Tocris Bioscience, cat. 3006). […]
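Note: spheroids exposed to compounds for seven days before readout.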
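Throughout, for viability, T/C: luminescence viability expressed relative to DMSO vehicle wells set as 100%.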

CCC(CC)c1cc(NC2CCC(N)C2)n2nccc2n1 (configuration not stated) + C#Cc1c(F)ccc2cc(O)cc(-c3ncc4c(N5CC6CCC(C5)N6)nc(OCC56CCCN5CC(F)C6)nc4c3F)c12
1480 nM: IC50 (second compound 0.1 µM)
active: viability, T/C (second compound 0.0316 µM, first compound 3.16 µM) 2.68% | viability, T/C (second compound 0.0316 µM, first compound 10 µM) 0.57% | viability, T/C (second compound 0.1 µM, first compound 3.16 µM) 3.04% | viability, T/C (second compound 0.1 µM, first compound 10 µM) 0.56% | viability, T/C (second compound 0.316 µM, first compound 3.16 µM) 2.75% | viability, T/C (second compound 0.316 µM, first compound 10 µM) 0.5% | viability, T/C (second compound 1 µM, first compound 3.16 µM) 2.71% | viability, T/C (second compound 1 µM, first compound 10 µM) 0.44% | viability, T/C (second compound 3.16 µM, first compound 3.16 µM) 3.48% | viability, T/C (second compound 3.16 µM, first compound 10 µM) 0.51% | viability, T/C (second compound 10 µM, first compound 3.16 µM) 2.33% | viability, T/C (second compound 10 µM, first compound 10 µM) 0.39%
1500 nM: IC50 (second compound 3.16 µM)
1460 nM: IC50 (second compound 10 µM)
inactive: viability, T/C (second compound 0.0316 µM, first compound 0.0316 µM) 115% | viability, T/C (second compound 0.0316 µM, first compound 0.1 µM) 80.2% | viability, T/C (second compound 0.0316 µM, first compound 0.316 µM) 102% | viability, T/C (second compound 0.0316 µM, first compound 1 µM) 67.5% | viability, T/C (second compound 0.1 µM, first compound 0.0316 µM) 105% | viability, T/C (second compound 0.1 µM, first compound 0.1 µM) 106% | viability, T/C (second compound 0.1 µM, first compound 0.316 µM) 95.3% | viability, T/C (second compound 0.1 µM, first compound 1 µM) 74.5% | viability, T/C (second compound 0.316 µM, first compound 0.0316 µM) 85.5% | viability, T/C (second compound 0.316 µM, first compound 0.1 µM) 103% | viability, T/C (second compound 0.316 µM, first compound 0.316 µM) 94.1% | viability, T/C (second compound 0.316 µM, first compound 1 µM) 83.5% | viability, T/C (second compound 1 µM, first compound 0.0316 µM) 113% | viability, T/C (second compound 1 µM, first compound 0.1 µM) 89.7% | viability, T/C (second compound 1 µM, first compound 0.316 µM) 92% | viability, T/C (second compound 1 µM, first compound 1 µM) 83.1% | viability, T/C (second compound 3.16 µM, first compound 0.0316 µM) 103% | viability, T/C (second compound 3.16 µM, first compound 0.1 µM) 90.3% | viability, T/C (second compound 3.16 µM, first compound 0.316 µM) 97% | viability, T/C (second compound 3.16 µM, first compound 1 µM) 75.2% | viability, T/C (second compound 10 µM, first compound 0.0316 µM) 93.3% | viability, T/C (second compound 10 µM, first compound 0.1 µM) 96.3% | viability, T/C (second compound 10 µM, first compound 0.316 µM) 79% | viability, T/C (second compound 10 µM, first compound 1 µM) 73%
1610 nM: IC50 (second compound 0.316 µM) | IC50 (second compound 1 µM)
1360 nM: IC50 (second compound 0.0316 µM)

— PubChem BioAssay AID2060906 (Molecular Pharmacology Branch, DTP, NCI, 2025)
